Consider one compound from patent US20210189330A1, “INDUCED TOTIPOTENT STEM CELLS AND METHODS FOR MAKING AND USING THE SAME” (THE J. DAVID GLADSTONE INSTITUTES, A TESTAMENTARY TRUST …, priority 2017, published 2021).

This data set has as its system mEpiSCs. Nature of the data set: mEpiSC conversion culture in first conversion media with Smad inhibitor. The format is cell-based, mouse. The note with it: 1 μM on Day 0, 3 μM from Days 1-3; observed Conversion Day 1. On the procedure: Under the conditions tested, the conversion bias toward floating iBCs was less efficient; therefore, more cells were required than for the 3D hemispheres (discussed in example above) in order to observe or harvest iBCs. It is contemplated that optimization of timing and Smad inhibition may vary depending on the cell type used. […] Two phases of media were prepared and cells were fed from days 0-3 (“first conversion media”) and then days 4-7 (“second conversion media”), respectively.
At Conversion Day 0, approximately 14 hours after preparation of mEpiSCs for conversion, cells were observed as evenly dispersed, mostly single cells. The first conversion media was prepared using CTSFES media with Pen/Strep and 2-Mercaptoethanol described above as the base media and supplemented with BMP4 (10 ng/mL), SB431542 (1 μM on Day 0, 3 μM from Days 1-3), and AA (64 μg/mL). On Conversion Day 1, cells were observed growing with some cells remaining colony-like while others began to flatten at the edges. (FIG. 4). […] At approximately the same time each day, media was replaced and cells were incubated overnight at 37° C.

Turning to `NC(=O)c1ccc(-c2nc(-c3ccc4c(c3)OCO4)c(-c3ccccn3)[nH]2)cc1` [SB431542], the “toxicity to starting mEpiSCs” value was “toxicity was also believed to be killing some cells”.
